MIC data for four compounds are collected here from ChEMBL document CHEMBL3399993, “Design and synthesis of novel quinoline-aminopiperidine hybrid analogues as Mycobacterium tuberculosis DNA gyraseB inhibitors” (Bioorg Med Chem, 2015).

Molecules are shown by their SMILES. In brackets after ≈: the same amount, converted by molar mass.

The assay has as its system Mycobacterium tuberculosis. Nature of the assay: Antimycobacterial activity against extensively drug resistant Mycobacterium tuberculosis. Type of assay: functional.

For the compound `Cc1cc(N2CCC(NC(=O)Nc3ccc(F)cc3)CC2)c2cc(F)ccc2n1`, the minimal inhibitory concentration (MIC) (usually the lowest concentration that inhibits growth of the organism) worked out at 3.82 µM (≈ 1.51 µg/mL). `COc1ccc2nc(C)cc(N3CCC(NC(=S)Nc4ccccc4)CC3)c2c1` gave a minimum inhibitory concentration (MIC) of 7.62 µM (≈ 3.1 µg/mL). On to `COc1ccc2nc(C)cc(N3CCC(NC(=S)Nc4ccc(Cl)cc4)CC3)c2c1`, for which the MIC turned out to be 6.94 µM (≈ 3.06 µg/mL). Under `COc1ccc2nc(C)cc(N3CCC(NC(=S)Nc4ccc([N+](=O)[O-])cc4)CC3)c2c1` stands 1.72 µM (≈ 0.777 µg/mL).
